Test results taken from publication PMC6920806, “Synthesis of β-D-galactopyranoside-Presenting Glycoclusters, Investigation of Their Interactions with Pseudomonas aeruginosa Lectin A (PA-IL) and Evaluation of Their Anti-Adhesion Potential” (Biomolecules, 2019).

System: adhesion of P. aeruginosa (ST 1763) to epithelial bronchial cells (CuFi-1)
Assay: Ex vivo bacterial adherence assay, combination with compound 14
Type: cell-based, Pseudomonas aeruginosa
Conditions: 2 mM of the compound with compound 14 (250 μM); relative to untreated control
Experimental: Epithelial CuFi-1 cells (an immortalized epithelial cell line derived from cystic fibrosis human lungs, ATCC, Kielpin, Poland) were labelled with PKH67 (Fluorescent Cell Linker Kit, Sigma-Aldrich, St. Louis, MO, USA), a green fluorescent membrane marker, as follows. An aliquot of cell suspension containing 7 × 10^6 cells was washed with PBS buffer and centrifuged (100× g for 5 min). The cell pellet was resuspended in 250 µL of Diluent C (Fluorescent Cell Linker Kit, Sigma-Aldrich, St. Louis, MO, USA). Immediately, an equal volume of 8 µM PKH67 in Diluent C (2 µL of PKH67 in 248 µL of Diluent C) was added to the cell suspension. […]
Epithelial cells CuFi-1 stained with PKH67 were seeded at 8.4 × 10^4 cells/well onto 96-well plates (CellBIND® 96-well Flat Clear Bottom Black Polystyrene Microplates, Corning Incorporated, Corning, NY, USA) and incubated for 42–45 h at 37 °C, 5% CO2 to form a confluent monolayer and regenerate. […] The fluorescence of adhered P. aeruginosa cells (Ex 522 nm, Em 569 nm for PKH26) on epithelial cells (Ex 470 nm, Em 505 for PKH67) was quantified using the spectrofluorometer Tecan Infinite M200 Pro (Tecan Group Ltd., Männedorf, Switzerland). Results were expressed as a relative fluorescence ratio of P. aeruginosa/CuFi-1. […]

Structure (SMILES): COC(=O)c1cc(OCc2cn(CCn3cc(CO[C@@H]4O[C@H](CO)[C@H](O)[C@H](O)[C@H]4O)nn3)nn2)c(OCc2cn(CCn3cc(CO[C@@H]4O[C@H](CO)[C@H](O)[C@H](O)[C@H]4O)nn3)nn2)c(OCc2cn(CCn3cc(CO[C@@H]4O[C@H](CO)[C@H](O)[C@H](O)[C@H]4O)nn3)nn2)c1 [Compound 10]
- P. aeruginosa adhesion, mixture with compound 14: approximately 22%

Structure (SMILES): OC[C@H]1O[C@@H](OCc2cn(CCn3cc(COCC(COCc4cn(CCn5cc(CO[C@@H]6O[C@H](CO)[C@H](O)[C@H](O)[C@H]6O)nn5)nn4)(COCc4cn(CCn5cc(CO[C@@H]6O[C@H](CO)[C@H](O)[C@H](O)[C@H]6O)nn5)nn4)COCc4cn(CCn5cc(CO[C@@H]6O[C@H](CO)[C@H](O)[C@H](O)[C@H]6O)nn5)nn4)nn3)nn2)[C@H](O)[C@@H](O)[C@H]1O [Compound 13]
- P. aeruginosa adhesion, mixture with compound 14: ~23%
